In article PMC5059489, “Mechanistic evaluation and transcriptional signature of a glutathione S-transferase omega 1 inhibitor” (Nature Communications, 2016):
Several values for one entry are separate records, joined by “and”; a condition that tells them apart may be missing. Equal entries are not always repeated.

Legend:
HCT116p53+/+ cell = experiment: MTT cell proliferation at single concentration; assay type: cell-based, human
Description: Cell proliferation was assessed by a MTT assay. Cancer cells were seeded in 96-well microtitre plates and, after overnight attachment, treated with GSTO1 inhibitors. After 72 h, MTT solution (3 mg ml^−1; 20 μl) was added to each well and cells were incubated for 3 h at 37 °C. After incubation, media from each well was removed and the dark blue formazan crystals formed by live cells were dissolved in DMSO (150 μl per well). The absorbance intensity was measured at 570 nm on a microplate reader (Molecular Devices, Sunnyvale, CA, USA). Cell viability after 24 h treatment was assessed using ApoTox-Glo triplex assay (Promega) according to the manufacturer's protocol. At least three independent dose–response experiments with each concentration tested in triplicate were performed for each cell line.

GSTO1 [1] = molecular target: T1, GSTO1 (Homo sapiens, UniProt P78417); experiment: GSTO1 substrate assay (reduction of 4-NPG); settings: for IC50: read-out: GSTO substrate assay IC50, cluster screening tables
T1 sequence (P78417 1-241): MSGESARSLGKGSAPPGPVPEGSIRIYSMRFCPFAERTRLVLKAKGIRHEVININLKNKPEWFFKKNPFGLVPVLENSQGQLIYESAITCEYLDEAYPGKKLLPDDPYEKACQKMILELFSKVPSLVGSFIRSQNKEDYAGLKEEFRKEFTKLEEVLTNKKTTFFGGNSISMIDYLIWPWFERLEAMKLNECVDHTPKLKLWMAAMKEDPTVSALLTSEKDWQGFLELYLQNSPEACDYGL
Description: For activity screening, we adapted a GSTO1 substrate assay that relies on the quantification of the reduction of S-(4-nitrophenacyl)glutathione (4-NPG), a GSTO1-specific substrate[17], using recombinant human GSTO1 in a high-throughput screening format.
Enzyme activity was measured by monitoring the reduction of 4-NPG to 4-nitroacetophenone by GSTO1.

GSTO1 [2] = molecular target: T1, GSTO1; experiment: In-gel fluorescence competitive CMFDA binding assay, recombinant GSTO1; settings: inhibition of CMFDA binding
Description: (§1) Primary screening of GSTO inhibitors was based on competitive inhibition of CMFDA binding to endogenous GSTO. Briefly, HCT116^p53+/+ cells (4 × 10^4 per well) were coated in a 12-well plate. […] Cells were then washed with PBS and lysed using Cell Lytic M buffer (Sigma). […] Gels were immediately scanned on a Typhoon variable mode imager (Amersham Bioscience). Quantification of fluorescent band intensity was done using Image Quant 5.2 software.

endogenous GSTO1 = molecular target: T2, endogenous GSTO1 (Homo sapiens, UniProt P78417); experiment: In-gel fluorescence competitive CMFDA binding assay, endogenous GSTO1 in HCT116; settings: 10 µM; inhibition of CMFDA binding, HCT116
T2 sequence (P78417 1-241): T1 sequence (P78417 1-241)
Description: as §1

Structure (SMILES)	GSTO substrate assay % Inhibition at 10 µM (GSTO1 [1])	GSTO binding assay (% Inhibition at 10 µM) Recombinant (GSTO1 [2])	GSTO binding assay (% Inhibition at 10 µM) Endogenous (endogenous GSTO1)	IC50 (GSTO1 [1])	% Inhibition of HCT116p53+/+ cell proliferation at 10 µM (HCT116p53+/+ cell)
O=C(CCl)NNc1c(Cl)cc(Cl)cc1Cl [C3-17]	61.9%	57.6%	39.3%	–	7.4%
O=C(CCl)Nc1cc2c(cc1Cl)C(=O)c1ccccc1C2=O [C1-12]	10.4%	26.5%	40.1%	–	85%
CCOc1cc2c(cc1CNC(=O)CCl)OC(C)C2 (centres unmarked) [C3-5]	85.1%	14.7%	31.8%	–	64.1% and 63.6%
COc1ccc(N2CCN(C(=O)CCl)CC2)cc1 [C5-5]	78.6%	44.2%	51.5%	–	-16.3%
CCN1CCN(c2ccc(NC(=O)CCl)cc2)CC1 [C1-20]	66.9%	-8.5%	-15.1%	–	43.7% and 39%
C=CCSc1ccccc1NC(=O)CCl [C1-5]	96.3%	52.9%	22.9%	–	-3.8% and -2.6%
O=C(CCl)N1CCN(Cc2cccc3ccccc23)CC1 [C5-9]	83.7%	62.3%	52.8%	381 nM	68.4% and 79.3%
CN(CCCNC(=O)CCl)c1ccccc1 [C3-16]	83.1%	23.7%	45.4%	–	28.7%
O=C(CCl)Nc1ccccc1C(=O)NCc1ccco1 [C1-13]	62.2%	35.2%	61.1%	–	14.3% and 6.6%
CCOC(=O)c1cc(C(C)C)sc1NC(=O)CCl [C2-8]	3.8%	39.2%	51.7%	–	4.5% and 0.8%
CCN(Cc1ccc2c(c1)OCO2)C(=O)CCl [C4-11]	103.4%	60.0%	51.8%	2360 nM	2.8%
CCN(CC)S(=O)(=O)c1ccc(CNC(=O)CCl)cc1 [C3-2]	86.4%	63.3%	63.6%	1480 nM	55.3% and 49.6%
O=C(CCl)NCCC12CC3CC(CC(C3)C1)C2 [C3-34]	78.6%	50.9%	41.7%	–	-2.4%
Cn1ccnc1C(NC(=O)CCl)c1ccccc1 (centres unmarked) [C3-10]	78.4%	29.4%	48.4%	–	96.5% and 87.4%
CC(=O)c1cc2c(cc1NC(=O)CCl)OCO2 [C1-9]	12.5%	56.5%	39.3%	–	-1.2%
N#CC(c1ccccc1)N1CCN(C(=O)CCl)CC1 (centres unmarked) [C5-8]	93.8%	62.3%	75.7%	293 nM	82.6% and 87.3%
O=C(CCl)N1CCN(Cc2ccc(Br)s2)CC1 [C5-10]	68.3%	59.8%	55.8%	411 nM	71.5% and 90.4%
CC(C)C(C#N)N1CCN(C(=O)CCl)CC1 (centres unmarked) [C5-2]	58.2%	52.5%	66.2%	559 nM	40.2% and 61.1%

Now from value to molecule, other results behind:

GSTO substrate assay % Inhibition at 10 µM (GSTO1 [1])	GSTO binding assay (% Inhibition at 10 µM) Recombinant (GSTO1 [2])	GSTO binding assay (% Inhibition at 10 µM) Endogenous (endogenous GSTO1)	IC50 (GSTO1 [1])	Structure (SMILES)	% Inhibition of HCT116p53+/+ cell proliferation at 10 µM (HCT116p53+/+ cell)
3.7%	6.4%	54.4%	–	O=C(CCl)Nc1ccccc1N1CCCC1=O [C1-18]	41.5% and 41.7%
92.5%	81.5%	31.8%	–	O=C(CCl)Nc1cc([N+](=O)[O-])ccc1Nc1ccc(F)cc1 [C1-4]	80.6%
73.0%	46.7%	88.9%	–	CC(NC(=O)CCl)c1cc2ccccc2o1 (centres unmarked) [C3-29]	89.7%
82.4%	36.2%	57.1%	–	O=C(CCl)NCC(=O)Nc1ccc(F)c(F)c1 [C3-25]	64.5% and 67.8%
47.4%	50.5%	41.1%	–	Cc1sc2ncn(NC(=O)CCl)c(=O)c2c1C [C2-30]	12.0%
34.0%	82.4%	62.1%	–	COc1ccc(-c2csc(NC(=O)CCl)n2)c(O)c1 [C2-24]	22.9% and 19.2%
25.9%	48.1%	41.3%	–	CCOC(=O)c1c(NC(=O)CCl)sc(Cc2ccc3c(c2)OCO3)c1C [C2-13]	38.1%
77.7%	75.6%	56.6%	162 nM	O=C(CCl)Nc1ccc(Oc2ccc(Br)cc2)cc1 [C1-7]	29.6%
41.4%	25.1%	49.0%	–	CC(=O)N1CCc2cc(NC(=O)CCl)ccc21 [C1-22]	80.8% and 86%
61.5%	37.8%	47.0%	–	Cc1c(C#N)c(NC(=O)CCl)n(-c2ccc(F)cc2)c1C [C2-3]	49%
